Laboratory results reported in the CheMixHub viscosity set.
Where “and” joins values, the source holds several entries; their conditions need not be identical. Identical values can stand only once.

How the values were obtained:
[1] = xn = mol fraction of the nth substance listed

CC(C)[O-].CC(C)[O-].CC(C)[O-].CC(C)[O-].[Ti+4]
101.3 kPa
Settings | viscosity [mPa·s]
293.15 K | 3.144
303.15 K | 1.845
313.15 K | 1.279
323.15 K | 1.003

CC1CCCCC1O (configuration not stated)
viscosity [mPa·s]
Settings | 293.15 K | 298.15 K | 303.15 K | 308.15 K | 313.15 K
100 kPa | 38.6 | 26.99 | 18.91 | 13.95 | 10.53
101 kPa | 21.7 | – | – | – | –

CCC(C)(O)CC
Settings | viscosity
298.15 K, 101.33 kPa | 3.918 mPa·s and 3.918 mPa·s

CCCC(C)=O
Settings | viscosity
293.15 K, 101 kPa | 0.506 mPa·s
298.15 K, 101 kPa | 0.463 mPa·s and 0.4591 mPa·s and 0.4673 mPa·s
303.15 K, 100 kPa | 0.435 mPa·s
303.15 K, 101 kPa | 0.437 mPa·s and 0.435 mPa·s
303.15 K, 101.32 kPa | 0.466 mPa·s
303.15 K, 101.33 kPa | 0.456 mPa·s
308.15 K, 100 kPa | 0.422 mPa·s
308.15 K, 101 kPa | 0.413 mPa·s and 0.422 mPa·s and 0.4197 mPa·s
313.15 K, 100 kPa | 0.409 mPa·s
313.15 K, 101 kPa | 0.405 mPa·s
318.15 K, 101 kPa | 0.3782 mPa·s
323.15 K, 101 kPa | 0.3584 mPa·s

CCCCCCCC(=O)[O-].CC[NH+](C(C)C)C(C)C
Settings | viscosity [mPa·s]
298.15 K, 101.3 kPa | 13.52

CCCCCCCCCCCCCC[P+](CCCCCC)(CCCCCC)CCCCCC.O=S(=O)([N-]S(=O)(=O)C(F)(F)F)C(F)(F)F
Settings | viscosity [mPa·s]
313.15 K, 101 kPa | 150

CCCC[n+]1ccccc1.N#C[N-]C#N
101 kPa
Settings | viscosity [mPa·s]
293.15 K | 41.05
298.15 K | 33.27
303.15 K | 27.62
308.15 K | 22.9
313.15 K | 19.3
318.15 K | 16.73
323.15 K | 14.44

CCCOC(C)=O
viscosity
Settings | 293.15 K | 298.15 K | 303.15 K | 308.15 K | 313.15 K | 318.15 K
101 kPa | 0.591 mPa·s | 0.56 mPa·s and 0.553 mPa·s and 0.562 mPa·s | 0.525 mPa·s | 0.487 mPa·s and 0.488 mPa·s | 0.462 mPa·s and 0.451 mPa·s | 0.439 mPa·s
101.33 kPa | – | 0.563 mPa·s | 0.524 mPa·s and 0.512 mPa·s | 0.489 mPa·s and 0.483 mPa·s | – | –

CCN(CC)CC
Settings | viscosity
293.15 K, 100 kPa | 0.3608 mPa·s
293.15 K, 101 kPa | 0.369 mPa·s
297.85 K, 101 kPa | 0.352 mPa·s
298 K, 101.33 kPa | 0.35 mPa·s
298.15 K, 100 kPa | 0.353 mPa·s and 0.3534 mPa·s (2×)
298.15 K, 101 kPa | 0.344 mPa·s
302.85 K, 101 kPa | 0.335 mPa·s
303.15 K, 100 kPa | 0.339 mPa·s and 0.3387 mPa·s (2×)
303.15 K, 101 kPa | 0.333 mPa·s
303.15 K, 101.33 kPa | 0.3592 mPa·s and 0.3592 mPa·s
307.85 K, 101 kPa | 0.319 mPa·s
308.15 K, 100 kPa | 0.322 mPa·s and 0.3221 mPa·s (2×)
312.95 K, 101 kPa | 0.304 mPa·s
313.15 K, 101 kPa | 0.302 mPa·s
313.15 K, 101.33 kPa | 0.3249 mPa·s and 0.3249 mPa·s
317.75 K, 101 kPa | 0.291 mPa·s
322.75 K, 101 kPa | 0.278 mPa·s
323.15 K, 101 kPa | 0.275 mPa·s

CCOC(=O)c1ccccc1O
Settings | viscosity [mPa·s]
303.15 K, 101 kPa | 3.117

CC[N+](C)(CC)CCOC.F[B-](F)(F)F
101 kPa
Settings | viscosity [mPa·s]
293.15 K | 228.1
298.15 K | 178.6
303.15 K | 140.4
308.15 K | 111.4
313.15 K | 89.27
318.15 K | 70.53
323.15 K | 57.55

CC[n+]1ccn(C)c1.N#C[N-]C#N
viscosity
Settings | 298.15 K | 303.15 K | 308.15 K | 313.15 K | 318.15 K | 323.15 K
100 kPa | 14.78 mPa·s and 13.09 mPa·s | 12.88 mPa·s and 11.39 mPa·s | 11.3 mPa·s and 10 mPa·s | 9.759 mPa·s and 8.86 mPa·s | 8.929 mPa·s and 7.92 mPa·s | 8.01 mPa·s and 7.13 mPa·s
101 kPa | 14.9 mPa·s and 17.4 mPa·s | – | – | 10.07 mPa·s | – | –

CCn1cc[n+](C)c1.O=C([O-])[C@@H]1CCCN1
101 kPa
Settings | viscosity [mPa·s]
298.15 K | 1195
303.15 K | 771.5

ClC(Cl)(Cl)Cl
Settings | viscosity
293.15 K, 101 kPa | 0.95 mPa·s and 0.9826 mPa·s
298 K, 101 kPa | 0.9128 mPa·s
298 K, 101.3 kPa | 0.892 mPa·s
298 K, 101.33 kPa | 0.899 mPa·s
298.15 K, 100 kPa | 0.9062 mPa·s and 0.897 mPa·s
298.15 K, 101.32 kPa | 0.902 mPa·s and 0.902 mPa·s
298.16 K, 101 kPa | 0.907 mPa·s
301.85 K, 101 kPa | 0.9088 mPa·s
303 K, 101.33 kPa | 0.8371 mPa·s and 0.838 mPa·s
303.15 K, 100 kPa | 0.845 mPa·s and 0.838 mPa·s
303.15 K, 101.3 kPa | 0.8427 mPa·s and 0.8427 mPa·s
303.15 K, 101.33 kPa | 0.845 mPa·s and 0.845 mPa·s and 0.768 mPa·s
308 K, 101 kPa | 0.7888 mPa·s
308.15 K, 100 kPa | 0.7897 mPa·s and 0.784 mPa·s
308.15 K, 101.33 kPa | 0.717 mPa·s
312.15 K, 101 kPa | 0.7815 mPa·s
313 K, 101.33 kPa | 0.7436 mPa·s and 0.735 mPa·s
313.15 K, 100 kPa | 0.7394 mPa·s and 0.734 mPa·s
313.15 K, 101.33 kPa | 0.739 mPa·s and 0.7392 mPa·s
318 K, 101 kPa | 0.6788 mPa·s
318 K, 101.3 kPa | 0.7444 mPa·s and 0.7449 mPa·s
318 K, 101.33 kPa | 0.7449 mPa·s
318.15 K, 100 kPa | 0.689 mPa·s
323 K, 101.33 kPa | 0.6566 mPa·s and 0.653 mPa·s
323.15 K, 101 kPa | 0.712 mPa·s
323.15 K, 101.33 kPa | 0.6543 mPa·s

[Cl-].[Cl-].[Cu+2] + O
viscosity [mPa·s], [1]
Settings | x1 = 0.000905 | x1 = 0.00112 | x1 = 0.002247 | x1 = 0.002718 | x1 = 0.004484 | x1 = 0.00453 | x1 = 0.006344 | x1 = 0.008159 | x1 = 0.008927 | x1 = 0.0177
308.15 K, 101.3 kPa | – | 0.739 | 0.7708 | – | 0.8088 | – | – | – | 0.879 | 0.9692
308.15 K, 101.33 kPa | 0.7395 | – | – | 0.7712 | – | 0.8092 | 0.8409 | 0.879 | – | –
313.15 K, 101.3 kPa | – | 0.6675 | 0.697 | – | 0.7375 | – | – | – | 0.794 | 0.8595
313.15 K, 101.33 kPa | 0.668 | – | – | 0.6975 | – | 0.738 | 0.762 | 0.7945 | – | –
323.15 K, 101.3 kPa | – | 0.577 | 0.601 | – | 0.637 | – | – | – | 0.6967 | 0.7595
323.15 K, 101.33 kPa | 0.5775 | – | – | 0.6015 | – | 0.6375 | 0.6685 | 0.6972 | – | –

ClC(Cl)(Cl)Cl + O=C1CCCCC1
[1], 298.15 K, 101 kPa
Settings | viscosity [mPa·s]
x2 = 0.0951 | 1.017
x2 = 0.2086 | 1.109
x2 = 0.3074 | 1.193
x2 = 0.4109 | 1.289
x2 = 0.5072 | 1.381
x2 = 0.6004 | 1.476
x2 = 0.7013 | 1.577
x2 = 0.8072 | 1.669
x2 = 0.9023 | 1.754
